According to PubChem BioAssay AID328 (DTP/NCI, 2004):
Inconclusive results and toxic doses are left out. Rule for the calls: active = survival T/C of 150% or more; inactive = T/C below 125% in these data.

System: BDF1 mice, P388 leukemia ip, median survival T/C
Assay: NCI In Vivo Anticancer Drug Screen. Data for tumor model P388 Leukemia (intraperitoneal) in B6D2F1 (BDF1) mice
Conditions: endpoint: median survival time, higher = longer survival
Procedure, shortened: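 Reported as T/C, where T is the survival measurement in dosed animals and C the same measurement in vehicle controls.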

[1] = dose: 100.0 mg/kg/injection, schedule: Q04DX003 (ip), vehicle: saline
[2] = dose: 50.0 mg/kg/injection, schedule: Q01DX009 (ip), vehicle: saline
[3] = dose: 100.0 mg/kg/injection, schedule: Q01DX009 (ip), vehicle: saline with Tween-80
[4] = dose: 100.0 mg/kg/injection, schedule: Q04DX003 (ip), vehicle: saline with Tween-80
[5] = dose: 200.0 mg/kg/injection, schedule: Q01DX009 (ip), vehicle: saline with Tween-80
[6] = dose: 200.0 mg/kg/injection, schedule: Q04DX003 (ip), vehicle: saline with Tween-80
[7] = dose: 400.0 mg/kg/injection, schedule: Q04DX003 (ip), vehicle: saline with Tween-80
[8] = dose: 100.0 mg/kg/injection, schedule: Q01DX009 (ip), vehicle: saline
[9] = dose: 100.0 mg/kg/injection, schedule: Q01DX001 (ip), vehicle: saline sonified
[10] = dose: 200.0 mg/kg/injection, schedule: Q01DX001 (ip), vehicle: saline sonified
[11] = dose: 400.0 mg/kg/injection, schedule: Q01DX001 (ip), vehicle: saline sonified

Measured: T/C

Cc1cccc(C)c1NC(=S)N(C)C
inactive: dose: 3.13 mg/kg/injection, schedule: Q01DX009 (ip), vehicle: saline with Tween-80 100 % of control | dose: 6.25 mg/kg/injection, schedule: Q01DX009 (ip), vehicle: saline with Tween-80 100 % of control | dose: 12.0 mg/kg/injection, schedule: Q01DX001 (ip), vehicle: Klucel (hydroxypropylcellulose) (HPC) 109 % of control | dose: 12.5 mg/kg/injection, schedule: Q01DX009 (ip), vehicle: saline with Tween-80 95 % of control | dose: 25.0 mg/kg/injection, schedule: Q01DX001 (ip), vehicle: Klucel (hydroxypropylcellulose) (HPC) 100 % of control | dose: 50.0 mg/kg/injection, schedule: Q01DX001 (ip), vehicle: Klucel (hydroxypropylcellulose) (HPC) 100 % of control | [1] 100 % of control

CCOc1nc(=O)n(C2CCOC2=O)cc1F (configuration not stated)
inactive: dose: 100.0 mg/kg/injection, schedule: Q01DX001 (ip), vehicle: Klucel (hydroxypropylcellulose) (HPC) 100 % of control | dose: 200.0 mg/kg/injection, schedule: Q01DX001 (ip), vehicle: Klucel (hydroxypropylcellulose) (HPC) 100 % of control | dose: 400.0 mg/kg/injection, schedule: Q01DX001 (ip), vehicle: Klucel (hydroxypropylcellulose) (HPC) 104 % of control

CCNNC(=O)[C@@H]1[C@H](c2cc(OC)c(OC)c(OC)c2)c2cc3c(cc2[C@H](O)[C@H]1CO)OCO3
inactive: dose: 12.5 mg/kg/injection, schedule: Q01DX009 (ip), vehicle: saline 109 % of control | dose: 25.0 mg/kg/injection, schedule: Q01DX009 (ip), vehicle: saline 100 % of control | dose: 50.0 mg/kg/injection, schedule: Q01DX009 (ip), vehicle: saline with Tween-80 116 % of control | [2] 122 % of control | [3] 90 % of control | [4] 108 % of control | [5] 90 % of control | [6] 104 % of control

Clc1nc2nc(C(Cl)(Cl)Cl)[nH]c2nc1Cl
inactive: dose: 12.5 mg/kg/injection, schedule: Q01DX009 (ip), vehicle: Klucel (hydroxypropylcellulose) (HPC) 95 % of control | dose: 25.0 mg/kg/injection, schedule: Q01DX009 (ip), vehicle: Klucel (hydroxypropylcellulose) (HPC) 108 % of control | dose: 50.0 mg/kg/injection, schedule: Q01DX009 (ip), vehicle: Klucel (hydroxypropylcellulose) (HPC) 116 % of control

COc1cc(C)c(Cl)c(C)c1C(C)=O
inactive: dose: 50.0 mg/kg/injection, schedule: Q04DX003 (ip), vehicle: Klucel (hydroxypropylcellulose) (HPC) 104 % of control | dose: 100.0 mg/kg/injection, schedule: Q04DX003 (ip), vehicle: Klucel (hydroxypropylcellulose) (HPC) 95 % of control | dose: 200.0 mg/kg/injection, schedule: Q04DX003 (ip), vehicle: Klucel (hydroxypropylcellulose) (HPC) 86 % of control

C[N+]1(C)N=C([O-])N(c2ccccc2Cl)C1=O
inactive: [4] 100 % of control | [6] 108 % of control | [7] 99 % of control

CNC1C(O)C(OC2C(N)CC(N)C(OC3OC(CN)C(O)C(O)C3O)C2O)OCC1(C)O (configuration not stated)
inactive: [8] 100 % of control | dose: 200.0 mg/kg/injection, schedule: Q01DX009 (ip), vehicle: saline 91 % of control | dose: 400.0 mg/kg/injection, schedule: Q01DX009 (ip), vehicle: saline 108 % of control

CN1c2ccc3ccccc3c2Sc2ccc3ccccc3c21
inactive: [3] 113 % of control | [4] 100 % of control | [5] 104 % of control | [6] 95 % of control | dose: 400.0 mg/kg/injection, schedule: Q01DX009 (ip), vehicle: saline with Tween-80 104 % of control | [7] 90 % of control

COCC1CCSC1=O (configuration not stated)
inactive: dose: 100.0 mg/kg/injection, schedule: Q01DX001 (ip), vehicle: saline with Tween-80 102 % of control | dose: 200.0 mg/kg/injection, schedule: Q01DX001 (ip), vehicle: saline with Tween-80 102 % of control | dose: 400.0 mg/kg/injection, schedule: Q01DX001 (ip), vehicle: saline with Tween-80 93 % of control

Cc1ccc(C(c2ccc(C)cc2)C(Cl)(Cl)Cl)cc1
inactive: [9] 100 % of control | [10] 100 % of control | [11] 90 % of control

COC1=CCC23C(=O)C=CC(=O)C2(C1)C(=O)c1ccccc1C3=O (configuration not stated)
inactive: dose: 3.12 mg/kg/injection, schedule: Q04DX003 (ip), vehicle: saline with Tween-80 105 % of control | dose: 6.25 mg/kg/injection, schedule: Q04DX003 (ip), vehicle: saline with Tween-80 113 % of control | dose: 12.5 mg/kg/injection, schedule: Q04DX003 (ip), vehicle: saline with Tween-80 113 % of control

Cc1ccc(C)c(OS(=O)(=O)c2ccc([N+](=O)[O-])cc2)c1
inactive: [9] 100 % of control | [10] 104 % of control | [11] 90 % of control

C[N+](C)(C)c1ncnc2c1ncn2C1CCCO1 (configuration not stated)
inactive: [2] 100 % of control | [8] 109 % of control | [1] 100 % of control | dose: 200.0 mg/kg/injection, schedule: Q04DX003 (ip), vehicle: saline 100 % of control
